This note sets out measurements from patent US4939137A, “Ring-fused thienopyrimidinedione derivatives” (Ortho Pharmaceutical Corporation, priority 1989, dated 1990).

The test system of experiment [1] is spontaneously hypertensive rats (SHR). Nature of the experiment: Antihypertensive Activity: Spontaneously Hypertensive Rat (SHR test). It counts as in vivo, rat (male spontaneously hypertensive). As to conditions: p.o. or i.v.; for change in vivo at 5 mg/kg: Rattus norvegicus, dose 5 mpk, read-out: SHR TEST: change in blood pressure (delta % of control); for SHR TEST: change in mean arterial blood pressure: dose 2.5 mpk. On the procedure: Mean arterial pressure and heart rate were monitored from directly cannulated animals. Compounds were administered p.o. or i.v. and blood pressure was recorded for various time intervals post dosing.
Blood pressure changes (expressed as change in control pressure and reported as delta % of control for each animal) were analyzed statistically using a one way analysis of variance with a Dunnett's test. P values less than 0.05 were considered significant.

Experiment [2] relates to alpha adrenergic receptor. Kind of experiment: Alpha-1 Adrenergic Blockage: Inhibition of Phenylephrine-Induced Increases in Blood Pressure in the Anesthetized Dog. The class given is in vivo. As to conditions: i.v., phenylephrine 10 μg/kg. The source says:
Dogs were anesthetized and bilaterally vagotomized. A femoral artery and vein were cannulated for detection of diastolic blood pressure and drug administration, respectively. Percent inhibition of alpha adrenergic receptor antagonism was quantified by determining dose-response (increase in diastolic pressure) relationship of phenylephrine before and after various doses of the antagonist.

Experiment [3] concerns the target alpha-1 adrenergic receptor. Nature of the experiment: Brain Alpha-1 Radioreceptor Assay (3H-prazosin). As to conditions: guinea pig brain membranes, 30 minutes, 30° C., read-out: RECEPTOR BINDING ALPHA-1 (IC50). The protocol: Membrane fragments were prepared from the brains of mature female guinea pigs after removal of the corpus striata. The alpha-1 adrenergic receptor sites were labeled with ^3 H-prazosin. Membrane fragments, ^3 H-prazosin and an unlabeled test compound were incubated for 30 minutes at 30° C. Compound bound to the receptor site was separated from the remaining unbound radioligand by vacuum filtration. Specific binding was determined by the difference between total counts bound and counts bound in the presence of 10-^5 M phentolamine.

The target in a further experiment is T1, 5HT1A receptor (Rattus norvegicus, UniProt P19327).
T1 construct: Membrane fragments were prepared from the frontal cortex dissected from brains obtained from female rats; from tissue; host or cells: frontal cortex, female rats
T1 sequence (P19327 1-422): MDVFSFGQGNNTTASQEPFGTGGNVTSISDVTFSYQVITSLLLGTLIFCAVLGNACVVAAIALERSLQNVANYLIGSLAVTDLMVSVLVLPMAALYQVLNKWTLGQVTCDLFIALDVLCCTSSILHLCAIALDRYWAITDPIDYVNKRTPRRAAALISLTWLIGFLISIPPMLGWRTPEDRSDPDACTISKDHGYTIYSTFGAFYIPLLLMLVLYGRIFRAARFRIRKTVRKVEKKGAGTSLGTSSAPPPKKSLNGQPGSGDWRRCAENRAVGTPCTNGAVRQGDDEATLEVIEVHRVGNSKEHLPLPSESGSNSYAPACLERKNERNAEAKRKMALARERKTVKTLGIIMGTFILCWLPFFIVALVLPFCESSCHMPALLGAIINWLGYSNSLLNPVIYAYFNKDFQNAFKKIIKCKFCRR
Nature of the experiment: Brain Serotonin 5HT1A Radioreceptor Assay (3H-80H-DPAT). The class given is binding. As to conditions: rat frontal cortex membranes, 10 minutes, 37° C., read-out: RECEPTOR BINDING 5HT-1A (IC50). On the procedure: Membrane fragments were prepared from the frontal cortex dissected from brains obtained from female rats (~150 g). The 5HT1A sites were labeled with ^3 H-80H-dipropylaminotetralin (^3 H-80H-DPAT). Membrane fragments, ^3 H-80H-DPAT and an unlabeled test compound were incubated for 10 minutes at 37° C. The tubes were then placed in an ice bath for an additional 10 minutes. Compound bound to the receptor site was separated from the remaining unbound compound by vacuum filtration.
The ability of a nonlabeled compound to compete with ^3 H-80H-DPAT for binding sites was a measure of the compound's affinity for the 5HT1A receptor. Specific binding was determined by the difference between total counts bound and counts bound in the presence of 10^-5 M serotonin.
Data are presented at the IC50, the concentration of nonlabeled compound required to displace 50% of the ^3 H-80H-DPAT specifically bound to 5HT1A binding sites.

The next experiment concerns the target T2, 5HT2 receptor (Rattus norvegicus, UniProt P14842).
T2 construct: Membrane fragments were prepared from the frontal cortex dissected from brains obtained from female rats; from tissue; host or cells: frontal cortex, female rats
Nature of the experiment: Brain Serotonin 5HT2 Radioreceptor Assay (3H-ketanserin). The class given is binding. As to conditions: rat frontal cortex membranes, 15 minutes, 37° C., read-out: RECEPTOR BINDING 5HT-2 (IC50). On the procedure:
Membrane fragments were prepared from the frontal cortex dissected from brains obtained from female rats (~150 g). The 5HT2 sites were labeled with ^3 H-ketanserin. Membrane fragments, ^3 H-ketanserin and an unlabeled test compound were incubated for 15 minutes at 37° C. Compound bound to the receptor site was separated from the remaining unbound compound by vacuum filtration.
The ability of a nonlabeled compound to compete with ^3 H-ketanserin for binding sites was a measure of the compound's affinity for the 5HT2 receptor. Specific binding was determined by the difference between total counts bound and counts bound in the presence of 10^-6 M methysergide.
Data are presented as the IC50, the concentration of nonlabeled compound required to displace 50% of the ^3 H-ketanserin specifically bound to 5HT2 binding sites.

Molecules are shown by their SMILES.

T2 sequence (P14842 whole entry, the tested form may be a part): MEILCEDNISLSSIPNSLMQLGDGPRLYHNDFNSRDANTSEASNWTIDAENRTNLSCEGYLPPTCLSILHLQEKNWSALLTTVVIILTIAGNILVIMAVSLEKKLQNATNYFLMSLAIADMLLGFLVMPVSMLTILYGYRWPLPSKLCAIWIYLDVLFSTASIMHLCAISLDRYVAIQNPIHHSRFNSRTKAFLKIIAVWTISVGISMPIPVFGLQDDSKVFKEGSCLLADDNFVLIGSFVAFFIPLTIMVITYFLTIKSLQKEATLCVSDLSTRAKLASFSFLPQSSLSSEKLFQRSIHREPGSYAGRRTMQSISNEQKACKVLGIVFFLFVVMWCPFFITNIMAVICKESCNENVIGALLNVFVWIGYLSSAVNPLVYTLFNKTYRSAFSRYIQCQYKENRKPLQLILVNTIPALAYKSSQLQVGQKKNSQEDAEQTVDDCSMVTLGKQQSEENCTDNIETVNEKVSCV

Consider `COc1ccccc1N1CCN(CCn2c(=O)c3csc4c3n(c2=O)CCC4O)CC1` (stereo not drawn) [Example 21, 3,4,5,7,8,9-Hexahydro-9-hydroxy-4-[2-[4-(2-methoxyphenyl)piperazin-1-yl]ethyl]thieno[4,3,2-de]pyrido[1,2-c]pyrimidine-3,5-dione], for which the change in vivo at 5 mg/kg in experiment [1] was -24.7%. Moreover, in experiment [2] (dose 0.03 mpk), the “% INHIB OF PHENYLEPHRINE RESPONSE” value is 96%.
For `Cc1ccccc1N1CCN(CCn2c(=O)c3csc4c3n(c2=O)CCC4=O)CC1` [Example 2, 3,4,5,7,8,9-Hexahydro-4-[2-[4-(2-methylphenyl)piperazin-1-yl]ethyl]thieno[4,3,2-de]pyrido[1,2-c]pyrimidine-3,5,9-trione] the same measures were -33% and 83%.
By IC50 is commonly meant the concentration that gives 50% inhibition. For `COc1ccccc1N1CCN(CCn2c(=O)c3csc4c3n(c2=O)CC=C4)CC1` [Example 24, 3,4,5,7-Tetrahydro-4-[2-[4-(2-methoxyphenyl)piperazin-1-yl]ethyl]thieno[4,3,2-de]pyrido[1,2-c]pyrimidine-3,5-dione], the half-inhibitory concentration (IC50) in experiment [3] is 23 nM; at 5HT1A receptor, 120 nM; on 5HT2 receptor it was 2000 nM. For the same compound, in experiment [1], the “SHR TEST: change in mean arterial blood pressure” value (shortened to “SHR TEST: change”) was -59.0 mm Hg. Besides, in experiment [2] (dose 0.03 mpk), the “% INHIB OF PHENYLEPHRINE RESPONSE” value worked out at 98%.
Take `CON=C1CCn2c(=O)n(CCN3CCN(c4ccccc4OC)CC3)c(=O)c3csc1c32` [Example 26, 3,4,5,7,8,9-Hexahydro-9-methoxyimino-4-[2-[4-(2-methoxyphenyl)piperazin-1-yl]ethyl]-thieno[4,3,2-de]pyrido[1,2-c]pyrimidine-3,5-dione]: the IC50 in experiment [3] worked out at 40 nM; on 5HT1A receptor, 0.72 nM; on 5HT2 receptor, 2000 nM. Further, the “% INHIB OF PHENYLEPHRINE RESPONSE” value in experiment [2] (dose 0.03 mpk) turned out to be 72%.
In the case of `COc1ccccc1N1CCN(CCn2c(=O)c3csc4c3n(c2=O)CCC4OC(C)=O)CC1` (stereo not drawn) [Example 30, 9-Acetyloxy-3,4,5,7,8,9-hexahydro-4-[2-[4-(2-methoxyphenyl)piperazin-1-yl]ethyl]thieno[4,3,2-de]pyrido[1,2-c]pyrimidine-3,5-dione], in experiment [1], the change in vivo at 5 mg/kg was -33.2%. Further, the “% INHIB OF PHENYLEPHRINE RESPONSE” value in experiment [2] (dose 0.03 mpk) came to 100%.
As to `COc1ccccc1N1CCN(CCn2c(=O)c3csc4c3n(c2=O)CCC4=O)CC1` [Example 1, 3,4,5,7,8,9-Hexahydro-4-[2-[4-(2-methoxyphenyl)piperazin-1-yl]ethyl]thieno[4,3,2-de]pyrido[1,2c]pyrimidine-3,5,9-trione], the IC50 came to 18 nM in experiment [3], 25 nM on 5HT1A receptor and 6500 nM at 5HT2 receptor. Moreover, the “SHR TEST: change” value in experiment [1] is recorded as -59 mm Hg. Also, the “% INHIB OF PHENYLEPHRINE RESPONSE” value in experiment [2] (dose 0.03 mpk) is listed as 86%.
As to `COc1ccccc1N1CCN(CCn2c(=O)c3csc4c3n(c2=O)CCNC4=O)CC1` [Example 25], the IC50 in experiment [3] was 45 nM; at 5HT1A receptor, 48 nM; at 5HT2 receptor, 2000 nM. Also, the “SHR TEST: change” value in experiment [1] is recorded as -58.0 mm Hg. The “% INHIB OF PHENYLEPHRINE RESPONSE” value in experiment [2] (dose 0.003 mpk) was determined as 94%.
With `COc1ccccc1N1CCN(CCn2c(=O)c3csc4c3n(c2=O)CCC4OC(=O)c2ccccc2)CC1` (stereo not drawn) [Example 35, 9-Benzoyloxy-3,4,5,7,8,9-hexahydro-4-[2-[4-(2-methoxyphenyl)piperazin-1-yl]ethyl]thieno[4,3,2-de]pyrido[1,2-c]pyrimidine-3,5-dione], the IC50 came to 0.015 nM in experiment [3], 130 nM on 5HT1A receptor and 1500 nM on 5HT2 receptor. Besides, the change in vivo at 5 mg/kg in experiment [1] is -16.6%. Further, in experiment [2] (dose 0.03 mpk), the “% INHIB OF PHENYLEPHRINE RESPONSE” value is reported as 89%.
